Results on 1 compound are retold here after patent publication US20050169981A1, “Solid compositions comprising ramipril” (priority 2001, published 2005).

The data set can be described thus: Stability of capsules stored at 50° C. for one week, degradation products by HPLC. The class given is physicochemical. The following applies: starting ramipril, before encapsulation and storage. Here is the method: For each of the 4 examples, the ingredients in the proportions shown were mixed together. The powder mixture was then passed through a #60 screen and mixed again. The powder mixture was then filled into size 4 two-piece hard gelatin capsules as a net fill of 150 mg per capsules, so that each capsule contained 1.25 mg of ramipril. Capsules of each of the examples were stored at 50° C. for one week and then tested by a high-performance liquid chromatographic method (HPLC) to determine the degradation products as a percentage of the ramipril content.

Turning to `CCOC(=O)[C@H](CCc1ccccc1)N[C@@H](C)C(=O)N1[C@H](C(=O)O)C[C@@H]2CCC[C@@H]21` [ramipril, Ramipril], the “level of degradation products in the ramipril used to make the capsules” value is listed as 0.29%.
